Measurements as given in US12384776B2, “Compounds and uses thereof” (Foghorn Therapeutics Inc., priority 2019, dated 2025).

Target: Nanoluciferase-BRD9 fusion protein (3×FLAG-NLuc-BRD9) in SYO-1 cells (Homo sapiens (Human), UniProt Q9H8M2)
Test: SYO1 BRD9 NanoLuc degradation assay
Format: cell-based
Conditions: SYO-1 cells expressing 3×FLAG-NLuc-BRD9, 6 hours incubation, top dose 1 μM
In short: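 Stable SYO-1 line expressing 3×FLAG-NLuc-BRD9, treated with 10-point 3-fold dilutions (top 1 μM final) for 6 hours. Nanoluciferase luminescence read with Nano-Glo reagent. % inhibition relative to DMSO (high control) and 1 μM reference BRD9 degrader (low control).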

Chain of Nanoluciferase-BRD9 fusion protein (3×FLAG-NLuc-BRD9) in SYO-1 cells (Q9H8M2 whole entry, the tested form may be a part): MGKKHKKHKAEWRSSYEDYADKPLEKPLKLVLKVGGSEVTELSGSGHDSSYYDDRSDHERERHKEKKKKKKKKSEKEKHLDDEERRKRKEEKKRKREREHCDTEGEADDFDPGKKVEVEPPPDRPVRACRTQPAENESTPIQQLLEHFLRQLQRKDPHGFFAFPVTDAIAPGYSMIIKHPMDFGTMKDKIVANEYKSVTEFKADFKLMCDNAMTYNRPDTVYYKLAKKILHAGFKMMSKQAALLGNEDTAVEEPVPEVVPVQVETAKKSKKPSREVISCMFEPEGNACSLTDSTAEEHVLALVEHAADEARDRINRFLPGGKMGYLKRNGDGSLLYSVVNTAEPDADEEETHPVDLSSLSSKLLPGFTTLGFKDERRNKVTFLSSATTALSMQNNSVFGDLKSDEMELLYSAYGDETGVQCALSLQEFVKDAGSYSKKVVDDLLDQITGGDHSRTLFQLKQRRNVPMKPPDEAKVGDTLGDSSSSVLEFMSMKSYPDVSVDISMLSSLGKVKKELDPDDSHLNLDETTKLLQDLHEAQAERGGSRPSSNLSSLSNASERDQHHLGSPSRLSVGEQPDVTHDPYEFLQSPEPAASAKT

IC50 [nM]	SMILES
10 to 100	COc1cc(-c2cn(C)c(=O)c3c2CCN(C(=O)NCCN2CCC4C2CN4c2ccc4c(c2)C(=O)N(C2CCC(=O)NC2=O)C4=O)C3)cc(OC)c1CN(C)C (stereo not shown) [Compound D184]
100 to 1000	COc1cc(-c2cn(C)c(=O)c3c2CCN(C(=O)NCCN2CCC4(CCN4c4ccc5c(c4)C(=O)N(C4CCC(=O)NC4=O)C5=O)C2)C3)cc(OC)c1CN(C)C (stereo not shown) [Compound D185]
10 to 100	COc1cc(-c2cn(C)c(=O)c3c2CCN(C(=O)NCCN2CCC(OC4CCN(c5ccc6c(c5)C(=O)N(C5CCC(=O)NC5=O)C6=O)CC4)CC2)C3)cc(OC)c1CN(C)C (stereo not shown) [Compound D186]
10 to 100	COc1cc(-c2cn(C)c(=O)c3c2CCN(C(=O)NCCN2CCC4C(C2)CN4c2ccc4c(c2)C(=O)N(C2CCC(=O)NC2=O)C4=O)C3)cc(OC)c1CN(C)C (stereo not shown) [Compound D187]
100 to 1000	COc1cc(-c2cn(C)c(=O)c3c2CCN(C(=O)NCCN2CCC4CCN(c5ccc6c(c5)C(=O)N(C5CCC(=O)NC5=O)C6=O)C4C2)C3)cc(OC)c1CN(C)C (stereo not shown) [Compound D188]
100 to 1000	COc1cc(-c2cn(C)c(=O)c3c2CCN(C(=O)NCCN2CCC4(C2)CN(c2ccc5c(c2)C(=O)N(C2CCC(=O)NC2=O)C5=O)C4)C3)cc(OC)c1CN(C)C (stereo not shown) [Compound D189]
100 to 1000	COc1cc(-c2cn(C)c(=O)c3c2CCN(C(=O)NCCN2CCC4(CCN(c5ccc6c(c5)C(=O)N(C5CCC(=O)NC5=O)C6=O)C4)C2)C3)cc(OC)c1CN(C)C (stereo not shown) [Compound D190]
100 to 1000	COc1cc(-c2cn(C)c(=O)c3c2CCN(C(=O)NCCN2CC4(CCN(c5ccc6c(c5)C(=O)N(C5CCC(=O)NC5=O)C6=O)CC4)C2)C3)cc(OC)c1CN(C)C (stereo not shown) [Compound D191]
100 to 1000	COc1cc(-c2cn(C)c(=O)c3c2CCN(C(=O)NCCN2CC4(CCN4c4ccc5c(c4)C(=O)N(C4CCC(=O)NC4=O)C5=O)C2)C3)cc(OC)c1CN(C)C (stereo not shown) [Compound D192]
100 to 1000	COc1cc(-c2cn(C)c(=O)c3c2CCN(C(=O)NCCN2CCC(OC4CCN(c5ccc6c(c5)C(=O)N(C5CCC(=O)NC5=O)C6=O)CC4)C2)C3)cc(OC)c1CN(C)C (stereo not shown) [Compound D204]
10 to 100	COc1cc(-c2cn(C)c(=O)c3c2CCN(C(=O)NCCN2CCC(C4CCN(c5ccc6c(c5)C(=O)N(C5CCC(=O)NC5=O)C6=O)CC4)C2)C3)cc(OC)c1CN(C)C (stereo not shown) [Compound D205]
100 to 1000	COc1cc(-c2cn(C)c(=O)c3c2CCN(C(=O)NCCN2CCC(OCC4CCN(c5ccc6c(c5)C(=O)N(C5CCC(=O)NC5=O)C6=O)CC4)C2)C3)cc(OC)c1CN(C)C (stereo not shown) [Compound D206]
10 to 100	COc1cc(-c2cn(C)c(=O)c3c2CCN(C(=O)NCCCN2CCC4(C2)CN(c2ccc5c(c2)C(=O)N(C2CCC(=O)NC2=O)C5=O)C4)C3)cc(OC)c1CN(C)C (stereo not shown) [Compound D207]
10 to 100	COc1cc(-c2cn(C)c(=O)c3c2CCN(C(=O)NCCCN2CCC4(CCN(c5ccc6c(c5)C(=O)N(C5CCC(=O)NC5=O)C6=O)C4)C2)C3)cc(OC)c1CN(C)C (stereo not shown) [Compound D208]
10 to 100	COc1cc(-c2cn(C)c(=O)c3c2CCN(C(=O)NCCN2CCC4(CC2)CCN(c2ccc5c(c2)C(=O)N(C2CCC(=O)NC2=O)C5=O)C4)C3)cc(OC)c1CN(C)C (stereo not shown) [Compound D209]

More lines, now with the values behind:

SMILES	IC50 [nM]
CNC(=O)N1CCc2c(-c3cc(OC)c(CN4CCC(CCN5CCN(c6ccc7c(c6)C(=O)N(C6CCC(=O)NC6=O)C7=O)CC5)C(F)(F)C4)c(OC)c3)cn(C)c(=O)c2C1 (stereo not shown) [Compound D155]	< 10
CNC(=O)N1CCc2c(-c3cc(OC)c(CNC4CC45CCN(c4ccc6c(c4)C(=O)N(C4CCC(=O)NC4=O)C6=O)C5)c(OC)c3)cn(C)c(=O)c2C1 (stereo not shown) [Compound D156]	< 10
CNC(=O)N1CCc2c(-c3cc(OC)c(CNC4CC5(C4)CN(c4ccc6c(c4)C(=O)N(C4CCC(=O)NC4=O)C6=O)C5)c(OC)c3)cn(C)c(=O)c2C1 (stereo not shown) [Compound D158]	< 10
CNC(=O)N1CCc2c(-c3cc(OC)c(CN4CC(CN5CC6(CCN(c7ccc8c(c7)C(=O)N(C7CCC(=O)NC7=O)C8=O)C6)C5)C4)c(OC)c3)cn(C)c(=O)c2C1 (stereo not shown) [Compound D167]	10 to 100
CNC(=O)N1CCc2c(-c3cc(OC)c(CN4CC(CN5CCN(c6ccc7c(c6)C(=O)N(C6CCC(=O)NC6=O)C7=O)CC5)C4)c(OC)c3)cn(C)c(=O)c2C1 (stereo not shown) [Compound D168]	10 to 100
CNC(=O)N1CCc2c(-c3cc(OC)c(CN4CCC(CN5CCN(c6ccc7c(c6)C(=O)N(C6CCC(=O)NC6=O)C7=O)CC5)C4)c(OC)c3)cn(C)c(=O)c2C1 (stereo not shown) [Compound D169]	< 10
CNC(=O)N1CCc2c(-c3cc(OC)c(CN4CCN(C5CCN(c6ccc7c(c6)C(=O)N(C6CCC(=O)NC6=O)C7=O)CC5)CC4)c(OC)c3)cn(C)c(=O)c2C1 (stereo not shown) [Compound D170]	< 10
CNC(=O)N1CCc2c(-c3cc(OC)c(CN4CCC(CCN(C)C5CN(c6ccc7c(c6)C(=O)N(C6CCC(=O)NC6=O)C7=O)C5)CC4)c(OC)c3)cn(C)c(=O)c2C1 (stereo not shown) [Compound D171]	< 10
CNC(=O)N1CCc2c(-c3cc(OC)c(CN4CCC(CCN5CC6CC5CN6c5ccc6c(c5)C(=O)N(C5CCC(=O)NC5=O)C6=O)CC4)c(OC)c3)cn(C)c(=O)c2C1 (stereo not shown) [Compound D172]	< 10
CNC(=O)N1CCc2c(-c3cc(OC)c(CN4CCC(CCN(C)C5CCCN(c6ccc7c(c6)C(=O)N(C6CCC(=O)NC6=O)C7=O)C5)CC4)c(OC)c3)cn(C)c(=O)c2C1 (stereo not shown) [Compound D173]	< 10
CNC(=O)N1CCc2c(-c3cc(OC)c(CN4CCC(C5(CN6CCN(c7ccc8c(c7)C(=O)N(C7CCC(=O)NC7=O)C8=O)CC6)CC5)CC4)c(OC)c3)cn(C)c(=O)c2C1 (stereo not shown) [Compound D174]	< 10
CNC(=O)N1CCc2c(-c3cc(OC)c(CN4CCC5(CC4)CN(C(=O)CCN4CCN(c6ccc7c(c6)C(=O)N(C6CCC(=O)NC6=O)C7=O)CC4)CCO5)c(OC)c3)cn(C)c(=O)c2C1 (stereo not shown) [Compound D175]	100 to 1000
CNC(=O)N1CCc2c(-c3cc(OC)c(CN4CC5(CCC(N6Cc7cc8c(cc7C6)C(=O)N(C6CCC(=O)NC6=O)C8=O)CC5)C4)c(OC)c3)cn(C)c(=O)c2C1 (stereo not shown) [Compound D176]	10 to 100
CNC(=O)N1CCc2c(-c3cc(OC)c(CN4CC5(CC(N6Cc7cc8c(cc7C6)C(=O)N(C6CCC(=O)NC6=O)C8=O)C5)C4)c(OC)c3)cn(C)c(=O)c2C1 (stereo not shown) [Compound D177]	10 to 100
CNC(=O)N1CCc2c(-c3cc(OC)c(CN4CCC(CCCN5Cc6cc7c(cc6C5)C(=O)N(C5CCC(=O)NC5=O)C7=O)CC4)c(OC)c3)cn(C)c(=O)c2C1 (stereo not shown) [Compound D178]	< 10
CNC(=O)N1CCc2c(-c3cc(OC)c(CN4CCC(CCN5Cc6cc7c(cc6C5)C(=O)N(C5CCC(=O)NC5=O)C7=O)CC4)c(OC)c3)cn(C)c(=O)c2C1 (stereo not shown) [Compound D179]	< 10

SMILES	IC50 [nM]
CNC(=O)N1CCc2c(-c3cc(OC)c(CN4CCC(CN5Cc6cc7c(cc6C5)C(=O)N(C5CCC(=O)NC5=O)C7=O)CC4)c(OC)c3)cn(C)c(=O)c2C1 (stereo not shown) [Compound D180]	< 10
CNC(=O)N1CCc2c(-c3cc(OC)c(CN4CCC5(CCC(N6Cc7cc8c(cc7C6)C(=O)N(C6CCC(=O)NC6=O)C8=O)CC5)CC4)c(OC)c3)cn(C)c(=O)c2C1 (stereo not shown) [Compound D181]	< 10
CNC(=O)N1CCc2c(-c3cc(OC)c(CN4CCC5(CC4)CC(N4Cc6cc7c(cc6C4)C(=O)N(C4CCC(=O)NC4=O)C7=O)C5)c(OC)c3)cn(C)c(=O)c2C1 (stereo not shown) [Compound D182]	< 10
CNC(=O)N1CCc2c(-c3cc(OC)c(CN4CCC5(CC4)CC(Oc4ccc6c(c4)C(=O)N(C4CCC(=O)NC4=O)C6=O)C5)c(OC)c3)cn(C)c(=O)c2C1 (stereo not shown) [Compound D183]	< 10
COc1cc(-c2cn(C)c(=O)c3c2CCN(C(=O)NCC2CC4(CCN(CCCCN5CCN(c6ccc7c(c6)C(=O)N(C6CCC(=O)NC6=O)C7=O)CC5)CC4)O2)C3)cc(OC)c1CN(C)C (stereo not shown) [Compound D193]	≥ 1000
COc1cc(-c2cn(C)c(=O)c3c2CCN(C(=O)NCC2CC4(C2)CN(CCCOc2ccc5c(c2)C(=O)N(C2CCC(=O)NC2=O)C5=O)C4)C3)cc(OC)c1CN(C)C (stereo not shown) [Compound D194]	100 to 1000
CNC(=O)N1CCc2c(-c3cc(OC)c(CN4CCC(CN(C)C5CCN(c6ccc7c(c6)C(=O)N(C6CCC(=O)NC6=O)C7=O)CC5)CC4)c(OC)c3)cn(C)c(=O)c2C1 (stereo not shown) [Compound D195]	< 10
CNC(=O)N1CCc2c(-c3cc(OC)c(CN4CCC(CCN5CC6CN(c7ccc8c(c7)C(=O)N(C7CCC(=O)NC7=O)C8=O)CC6C5)CC4)c(OC)c3)cn(C)c(=O)c2C1 (stereo not shown) [Compound D196]	< 10
CNC(=O)N1CCc2c(-c3cc(OC)c(CN4CCC(CCN(C)C5CCN(c6ccc7c(c6)C(=O)N(C6CCC(=O)NC6=O)C7=O)C5)CC4)c(OC)c3)cn(C)c(=O)c2C1 (stereo not shown) [Compound D197]	< 10
CNC(=O)N1CCc2c(-c3cc(OC)c(CN4CCC(CCN5CCCN(c6ccc7c(c6)C(=O)N(C6CCC(=O)NC6=O)C7=O)CC5)CC4)c(OC)c3)cn(C)c(=O)c2C1 (stereo not shown) [Compound D198]	< 10
CNC(=O)N1CCc2c(-c3cc(OC)c(CN4CCC(CCN5CC6(C5)CN(c5ccc7c(c5)C(=O)N(C5CCC(=O)NC5=O)C7=O)C6)CC4)c(OC)c3)cn(C)c(=O)c2C1 (stereo not shown) [Compound D199]	< 10
CNC(=O)N1CCc2c(-c3cc(OC)c(CN4CCC(CCN(C)C5CCN(c6ccc7c(c6)C(=O)N(C6CCC(=O)NC6=O)C7=O)CC5)CC4)c(OC)c3)cn(C)c(=O)c2C1 (stereo not shown) [Compound D200]	< 10
CNC(=O)N1CCc2c(-c3cc(OC)c(CN4CCC(N5CCN(c6ccc7c(c6)C(=O)N(C6CCC(=O)NC6=O)C7=O)CC5)CC4)c(OC)c3)cn(C)c(=O)c2C1 (stereo not shown) [Compound D201]	< 10
CNC(=O)N1CCc2c(-c3cc(OC)c(CN4CCC5(CC4)CN(CCN4CCN(c6ccc7c(c6)C(=O)N(C6CCC(=O)NC6=O)C7=O)CC4)CCO5)c(OC)c3)cn(C)c(=O)c2C1 (stereo not shown) [Compound D202]	10 to 100
CNC(=O)N1CCc2c(-c3cc(OC)c(CN4CCC5(CC4)CN(C(=O)CCCOc4ccc6c(c4)C(=O)N(C4CCC(=O)NC4=O)C6=O)CCO5)c(OC)c3)cn(C)c(=O)c2C1 (stereo not shown) [Compound D203]	10 to 100
